# Read-outs that look alike come from different tables or passages of the source.
# Experiments:
# [1] = tested on: breast cancer line T47D cells;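 note: luminescence read-out after 72 h at 37 °C under 5% CO2, with medium-only wells as blanks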
# Method: (§1) To measure the cell inhibition effect of compounds and synergy effect of test articles on ten (10) cell lines using standard CTG assay.
# (§2) 7) Using complete cell medium, adjust the volume of the suspension to achieve a cell concentration.
# (§3) b. A549, T47D, SK-OV-3, MKN45, SK-Hep-1, HT-29, Capan-1, 786-O and LNCaP cell line, for compounds and vehicle groups, the seeding density of cell lines is 3000 cells/80 µL per well. For blank groups, add 100 µL medium. For PBS groups, add 100 µL PBS.
# (§4) 8) Incubate the U87MG, A549, T47D, SK-OV-3, MKN45, SK-Hep-1, HT-29, Capan-1, 786-O and LNCaP cells overnight at 37° C./5% CO2.
# (§5) Solid compound of cis-platinum was solubilized in PBS to a stock solution of 3.333 mM.
# (§6) Final volume is 100 µL per well at this point.
# (§7) 5) Incubate the plates at 37° C./5% CO2 for 72 hours.
# (§8) 1) Incubate the plates at room temperature and away from light for 30 minutes.
# (§9) 3) Add 100 µL /well of CellTiter-Glo® Reagent in each well. Avoid light.
# (§10) 4) Mix contents for 2 minutes on an orbital shaker.
# (§11) 5) Incubate plate at room temperature for 10 minutes to stabilize the luminescent signal.
# 6) Read plates in Envision.
# [2] = tested on: kidney cancer line 786-O cells;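 note: luminescence read-out after adding CellTiter-Glo reagent, with cells incubated at 37 °C under 5% CO2 during compound exposure, part of a ten cell line synergy study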
# Method: as §1, §2, §3, §4, §5, §6, §7, §8, §9, §10, §11
# 6) Read plates in Envision.
# [3] = tested on: colorectal cancer line HT29 cells; test: CTG (CellTiter-Glo) cell viability assay, 6×6 combo matrix, 72 h, HT29; conditions: for Relatively Cell inhibition of vehicle control(%): HT29;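 for all read-outs here: cells exposed to compounds for 72 hours at 37 °C under 5% CO2, then viability read as luminescence after adding CellTiter-Glo Reagent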
# Method: as §1, §2, §3, §4, §5, §6, §7, §8, §9, §10, §11
# 6) Read plates in Envision.
# [4] = tested on: gastric cancer line MKN45 cells; test: CTG (CellTiter-Glo) cell viability assay, 6×6 combo matrix, 72 h, MKN45;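 note: MKN45 cell viability read as CellTiter-Glo luminescence after 72 h culture at 37 °C under 5% CO2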
# Method: as §1, §2
# (§12) A549, T47D, SK-OV-3, MKN45, SK-Hep-1, HT-29, Capan-1, 786-O and LNCaP cell line, for compounds and vehicle groups, the seeding density of cell lines is 3000 cells/80 µL per well. For blank groups, add 100 µL medium. For PBS groups, add 100 µL PBS.
# as §4, §5, §6, §7, §8, §9, §10, §11
# 6) Read plates in Envision.
# [5] = tested on: kidney cancer line 786-O cells; test: CTG (CellTiter-Glo) cell viability assay, 6×6 combo matrix, 72 h, 786-O; conditions: for Relatively Cell inhibition of vehicle control(%): 786-O;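 for all read-outs here: luminescence read-out after adding CellTiter-Glo reagent, with cells incubated at 37 °C under 5% CO2 during compound exposure, part of a ten cell line synergy study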
# Method: as §1, §2, §3, §4, §5, §6, §7, §8, §9, §10, §11
# 6) Read plates in Envision.
# [6] = tested on: prostate adenocarcinoma line LNCap cells; test: CTG (CellTiter-Glo) cell viability assay, 6×6 combo matrix, 72 h, LNCaP; conditions: Homo sapiens, LNCaP;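 note: luminescence signal read after adding CellTiter-Glo reagent, with cells exposed to compounds for 72 h at 37 °C under 5% CO2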
# Method: as §1, §2, §3, §4, §5, §6, §7, §8, §9, §10, §11
# 6) Read plates in Envision.
# [7] = tested on: ovarian cancer line SK-OV3 cells;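 note: luminescent signal read after CellTiter-Glo addition, cells exposed to compounds for 72 h at 37 °C under 5% CO2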
# Method: as §1, §2, §12, §4, §5, §6, §7, §8, §9, §10, §11
# 6) Read plates in Envision.
# [8] = tested on: prostate adenocarcinoma line LNCap cells;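 note: luminescence signal read after adding CellTiter-Glo reagent, with cells exposed to compounds for 72 h at 37 °C under 5% CO2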
# Method: as §1, §2, §3, §4, §5, §6, §7, §8, §9, §10, §11
# 6) Read plates in Envision.
# [9] = tested on: breast cancer line T47D cells; test: CTG (CellTiter-Glo) cell viability assay, 6×6 combo matrix, 72 h, T47D; conditions: Homo sapiens;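 note: luminescence read-out after 72 h at 37 °C under 5% CO2, with medium-only wells as blanks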
# Method: as §1, §2, §3, §4, §5, §6, §7, §8, §9, §10, §11
# 6) Read plates in Envision.
# [10] = tested on: glioblastoma line U87MG cells; test: CTG (CellTiter-Glo) cell viability assay, 6×6 combo matrix, 72 h, U87MG; conditions: Homo sapiens, U-87 MG;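 note: U87MG cells seeded at 2000 per well, exposed 72 h, viability read by CellTiter-Glo luminescence, inhibition expressed relative to vehicle-treated wells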
# Method: as §1, §2
# U87MG cell lines, for compounds and vehicle groups, the seeding density of cell lines is 2000 cells/80 µL per well. For blank groups, add 100 µL medium. For PBS groups, add 100 µL PBS.
# as §4, §5, §6, §7, §8, §9, §10, §11
# 6) Read plates in Envision.
# [11] = tested on: pancreatic cancer line Capan-1 cells; test: CTG (CellTiter-Glo) cell viability assay, 6×6 combo matrix, 72 h, Capan-1; assay type: cell-based; conditions: for Relatively Cell inhibition of vehicle control(%): Capan-1
# Outline: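 Capan-1 cells were seeded at 3000 cells per well and incubated overnight at 37 °C/5% CO2. They were then treated with compounds in a 6×6 combination matrix for 72 h at 37 °C/5% CO2. Viability was read by CellTiter-Glo luminescence to assess inhibition and synergy.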
# [12] = tested on: Liver cancer line SK-HEP-1 cells;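 note: luminescent signal read after 72 h compound exposure at 37 °C under 5% CO2, with medium-only wells serving as blank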
# Method: as §1, §2, §3, §4, §5, §6, §7, §8, §9, §10, §11
# 6) Read plates in Envision.
# [13] = tested on: Liver cancer line SK-HEP-1 cells; test: CTG (CellTiter-Glo) cell viability assay, 6×6 combo matrix, 72 h, SK-Hep-1; conditions: Homo sapiens;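 note: luminescent signal read after 72 h compound exposure at 37 °C under 5% CO2, with medium-only wells serving as blank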
# Method: as §1, §2, §3, §4, §5, §6, §7, §8, §9, §10, §11
# 6) Read plates in Envision.
# [14] = tested on: lung adenocarcinoma line A549 cells; test: CTG (CellTiter-Glo) cell viability assay, 6×6 combo matrix, 72 h, A549; conditions: for Relatively Cell inhibition of vehicle control(%): A549;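 for all read-outs here: luminescent ATP readout with CellTiter-Glo after compound exposure, used to assess growth inhibition and combination synergy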
# [15] = Homo sapiens, HT-29, read-out: Relatively Cell inhibition of vehicle control(%)
# [16] = Homo sapiens, 786-0, read-out: Relatively Cell inhibition of vehicle control
# [17] = read-out: Relatively Cell inhibition of vehicle control(%), topotecan 16 nM only (myricetin plate)
# [18] = read-out: Relatively Cell inhibition of vehicle control(%), topotecan 80 nM only (myricetin plate)
# [19] = read-out: Relatively Cell inhibition of vehicle control(%), topotecan 400 nM only (myricetin plate)
# [20] = read-out: Relatively Cell inhibition of vehicle control(%), topotecan 2000 nM only (myricetin plate)
# [21] = read-out: Relatively Cell inhibition of vehicle control(%), topotecan 10000 nM only (myricetin plate)
# [22] = Homo sapiens, A549, read-out: Relatively Cell inhibition of vehicle control(%)
smiles,measurement,setting,value
CC[C@@]1(O)C(=O)OCc2c1cc1n(c2=O)Cc2cc3c(CN(C)C)c(O)ccc3nc2-1 [topotecan],inhibition,[1],2.49%
same,inhibition,[2],2.61%
same,inhibition at 0.08 µM,[3]; [15],26.1%
same,inhibition at 0.4 µM,[3]; [15],64.8%
same,inhibition at 2 µM,[3]; [15],93.2%
same,inhibition at 10 µM,[3]; [15],79.4%
same,Relatively Cell inhibition of vehicle control(%),[3]; Top 16 nM only (Myr 0),11.50%
same,Relatively Cell inhibition of vehicle control(%),[3]; Top 80 nM only (Myr 0),21.57%
same,Relatively Cell inhibition of vehicle control(%),[3]; Top 400 nM only (Myr 0),71.12%
same,Relatively Cell inhibition of vehicle control(%),[3]; Top 2000 nM only (Myr 0),94.54%
same,Relatively Cell inhibition of vehicle control(%),[3]; Top 10000 nM only (Myr 0),82.42%
same,Relatively Cell inhibition of vehicle control(%),[4]; Top 16 nM only (Myr 0),27.49%
same,Relatively Cell inhibition of vehicle control(%),[4]; Top 80 nM only (LB-1 0),48.98%
same,Relatively Cell inhibition of vehicle control(%),[4]; Top 80 nM only (Myr 0),53.47%
same,Relatively Cell inhibition of vehicle control(%),[4]; Top 400 nM only (LB-1 0),84.58%
same,Relatively Cell inhibition of vehicle control(%),[4]; Top 400 nM only (Myr 0),85.99%
same,Relatively Cell inhibition of vehicle control(%),[4]; Top 2000 nM only (LB-1 0),91.55%
same,Relatively Cell inhibition of vehicle control(%),[4]; Top 2000 nM only (Myr 0),92.29%
same,Relatively Cell inhibition of vehicle control(%),[4]; Top 10000 nM only (LB-1 0),89.36%
same,Relatively Cell inhibition of vehicle control(%),[4]; Top 10000 nM only (Myr 0),91.07%
same,inhibition at 0.08 µM,[5]; [16],68.1%
same,inhibition at 0.4 µM,[5]; [16],82.5%
same,inhibition at 2 µM,[5]; [16],91.7%
same,inhibition at 10 µM,[5]; [16],93.9%
same,Relatively Cell inhibition of vehicle control(%),[5]; Top 80 nM only (LB-1 0),68.14%
same,Relatively Cell inhibition of vehicle control(%),[5]; Top 400 nM only (LB-1 0),83.15%
same,Relatively Cell inhibition of vehicle control(%),[5]; Top 2000 nM only (LB-1 0),91.65%
same,Relatively Cell inhibition of vehicle control(%),[5]; Top 10000 nM only (LB-1 0),93.59%
same,inhibition at […],[6]; [17],17.6%
same,inhibition at 0.08 µM,"[6]; read-out: Relatively Cell inhibition of vehicle control(%), topotecan 80 nM only (LB-1 plate)",37.8%
same,inhibition at 0.08 µM,[6]; [18],40.1%
same,inhibition at 0.4 µM,"[6]; read-out: Relatively Cell inhibition of vehicle control(%), topotecan 400 nM only (LB-1 plate)",55.9%
same,inhibition at 0.4 µM,[6]; [19],60%
same,inhibition at 2 µM,"[6]; read-out: Relatively Cell inhibition of vehicle control(%), topotecan 2000 nM only (LB-1 plate)",82.1%
same,inhibition at 2 µM,[6]; [20],83.6%
same,inhibition at 10 µM,"[6]; read-out: Relatively Cell inhibition of vehicle control(%), topotecan 10000 nM only (LB-1 plate)",84.8%
same,inhibition at 10 µM,[6]; [21],87.5%
same,inhibition,[7],23%
same,inhibition,[8],15.4%
same,inhibition at […],"[9]; read-out: Relatively Cell inhibition of vehicle control(%), T47D, 16 nM topotecan only (myricetin 0)",12.5%
same,inhibition at 0.08 µM,"[9]; read-out: Relatively Cell inhibition of vehicle control(%), T47D, 80 nM topotecan only (LB-1 0)",29.6%
same,inhibition at 0.08 µM,"[9]; read-out: Relatively Cell inhibition of vehicle control(%), T47D, 80 nM topotecan only (myricetin 0)",36.9%
same,inhibition at 0.4 µM,"[9]; read-out: Relatively Cell inhibition of vehicle control(%), T47D, 400 nM topotecan only (LB-1 0)",45.7%
same,inhibition at 0.4 µM,"[9]; read-out: Relatively Cell inhibition of vehicle control(%), T47D, 400 nM topotecan only (myricetin 0)",53.9%
same,inhibition at 2 µM,"[9]; read-out: Relatively Cell inhibition of vehicle control(%), T47D, 2000 nM topotecan only (LB-1 0)",58.3%
same,inhibition at 2 µM,"[9]; read-out: Relatively Cell inhibition of vehicle control(%), T47D, 2000 nM topotecan only (myricetin 0)",62.7%
same,inhibition at 10 µM,"[9]; read-out: Relatively Cell inhibition of vehicle control(%), T47D, 10000 nM topotecan only (LB-1 0)",57.7%
same,inhibition at 10 µM,"[9]; read-out: Relatively Cell inhibition of vehicle control(%), T47D, 10000 nM topotecan only (myricetin 0)",61.9%
same,inhibition at […],"[10]; read-out: Relatively Cell inhibition of vehicle control(%), topotecan 16 nM only",15.6%
same,inhibition at […],[10]; [17],11.4%
same,inhibition at 0.08 µM,"[10]; read-out: Relatively Cell inhibition of vehicle control(%), topotecan 80 nM only",49.3%
same,inhibition at 0.08 µM,[10]; [18],51.6%
same,inhibition at 0.4 µM,"[10]; read-out: Relatively Cell inhibition of vehicle control(%), topotecan 400 nM only",64.1%
same,inhibition at 0.4 µM,[10]; [19],66.2%
same,inhibition at 2 µM,"[10]; read-out: Relatively Cell inhibition of vehicle control(%), topotecan 2000 nM only",73.5%
same,inhibition at 2 µM,[10]; [20],76.3%
same,inhibition at 10 µM,"[10]; read-out: Relatively Cell inhibition of vehicle control(%), topotecan 10000 nM only",82.1%
same,inhibition at 10 µM,[10]; [21],83.4%
same,inhibition at […],"[11]; Homo sapiens, CAPAN-1, topotecan 16 nM only, read-out: Relatively Cell inhibition of vehicle control",21%
same,inhibition at 0.08 µM,"[11]; Homo sapiens, CAPAN-1, topotecan 80 nM only, read-out: Relatively Cell inhibition of vehicle control",53.9%
same,inhibition at 0.4 µM,"[11]; Homo sapiens, CAPAN-1, topotecan 400 nM only, read-out: Relatively Cell inhibition of vehicle control",74.3%
same,inhibition at 2 µM,"[11]; Homo sapiens, CAPAN-1, topotecan 2000 nM only, read-out: Relatively Cell inhibition of vehicle control",88.4%
same,inhibition at 10 µM,"[11]; Homo sapiens, CAPAN-1, topotecan 10000 nM only, read-out: Relatively Cell inhibition of vehicle control",78.1%
same,Relatively Cell inhibition of vehicle control(%),[11]; Top 16 nM only,13.17%
same,Relatively Cell inhibition of vehicle control(%),[11]; Top 80 nM only,54.35%
same,Relatively Cell inhibition of vehicle control(%),[11]; Top 400 nM only,74.56%
same,Relatively Cell inhibition of vehicle control(%),[11]; Top 2000 nM only,88.92%
same,Relatively Cell inhibition of vehicle control(%),[11]; Top 10000 nM only,81.26%
same,inhibition,[12],-0.38%
same,inhibition at […],"[13]; SK-HEP1, read-out: Relatively Cell inhibition of vehicle control, topotecan 16 nM only (myricetin table)",-4.24%
same,inhibition at 0.08 µM,"[13]; SK-HEP1, read-out: Relatively Cell inhibition of vehicle control, topotecan 80 nM only (LB-1 table)",9.52%
same,inhibition at 0.08 µM,"[13]; SK-HEP1, read-out: Relatively Cell inhibition of vehicle control, topotecan 80 nM only (myricetin table)",16%
same,inhibition at 0.4 µM,"[13]; SK-HEP1, read-out: Relatively Cell inhibition of vehicle control, topotecan 400 nM only (LB-1 table)",35.4%
same,inhibition at 0.4 µM,"[13]; SK-HEP1, read-out: Relatively Cell inhibition of vehicle control, topotecan 400 nM only (myricetin table)",37.7%
same,inhibition at 2 µM,"[13]; SK-HEP1, read-out: Relatively Cell inhibition of vehicle control, topotecan 2000 nM only (LB-1 table)",70.3%
same,inhibition at 2 µM,"[13]; SK-HEP1, read-out: Relatively Cell inhibition of vehicle control, topotecan 2000 nM only (myricetin table)",74.2%
same,inhibition at 10 µM,"[13]; SK-HEP1, read-out: Relatively Cell inhibition of vehicle control, topotecan 10000 nM only (LB-1 table)",98.6%
same,inhibition at 10 µM,"[13]; SK-HEP1, read-out: Relatively Cell inhibition of vehicle control, topotecan 10000 nM only (myricetin table)",99.1%
same,inhibition at 1 µM,"[13]; SK-HEP1, read-out: inhibition rate, 1000 nM topotecan only (footnote of the LB-1 table)",98.6%
same,inhibition at 0.08 µM,[14]; [22],34.9%
same,inhibition at 0.4 µM,[14]; [22],60%
same,inhibition at 2 µM,[14]; [22],79.7%
same,inhibition at 10 µM,[14]; [22],94.4%
same,Relatively Cell inhibition of vehicle control(%),[14]; Top 16 nM only,-0.68%
same,Relatively Cell inhibition of vehicle control(%),[14]; Top 80 nM only,37.94%
same,Relatively Cell inhibition of vehicle control(%),[14]; Top 400 nM only,62.21%
same,Relatively Cell inhibition of vehicle control(%),[14]; Top 2000 nM only,80.57%
same,Relatively Cell inhibition of vehicle control(%),[14]; Top 10000 nM only,93.99%
